{
  "source": "patent US4835185A",
  "about": "“Immunomodulator for improving commercial performance of domestic animals” (Iowa State University Research Foundation, Inc., priority 1987, dated 1989)",
  "key": {"cortisol in plasma": {"system": "cortisol in plasma", "assay": "Lamb trials: plasma cortisol", "type": "in vivo, lambs (sheep)", "conditions": "* p<.05", "excerpt": "The lambs used in Trial 1 consisted of medium-frame crossbred wethers and ewes weighing 26 to 31 kg. The lambs used in Trial 2 consisted of medium-framced crossbred rams weighing 18 to 25 kg. Each animal was raised as a single. The lambs were housed in a temperature controlled room in individual pens with nipple waterers. When received, the lamps were vaccinated for enterotoxemia. They were allowed to adjust to the pens and the environment for 10 days. One day before the trial began, the lambs were sheared and placed on their respective dietary treatments. The lamps were allotted blocking by weight and sex into two dietary treatment groups. Growth and feed consumption were measured bi-weekly. All lamb weights were taken after a 12 to 16 hour fast. The animals were slaughtered at 50 kg in the Iowa State University Meat laboratory facilities at Ames, Iowa. At slaughter, the lamb's internal organs and wool were weighed and sampled, loin eye area and back fat measured, and carcasses separated into fat, lean, and bone.\nThe SMB (soybean meal-containing) and the CGM (corn-gluten-containing) diets (compositions given in Table A) were fed twice per day in quantities ensuring that feed was before the lambs at all times. The diets were calculated to be equivalent to each other with respect to metabolizable protein, ether extract, fiber, and minerals with the exception of calcium and phosphorus. […] The CGM diet was calculated to contain slightly more energy (TDN 81.7 vs. 79.0, NEm 1.88 v. 1.86, Neg. 1.23 vs. 1.22). […] The soybean meal ingredient contained about 3.5 wt % leucine, while the corn gluten meal ingredient contained about 15 wt % leucine. The CGM diet was therefore higher in leucine than the SBM diet, containing an estimated 16 wt % leucine as compared with an estimated 8 wt % leucine based on total crude protein in the diet.\n^(7) Amount of cortisol in plasma (ng/ml)."}, "lymphocytes": {"system": "lymphocytes", "assay": "Study of Immune Function: lymphocyte blastogenesis, cattle (experiment 3)", "type": "cell-based, castrated male cattle"}, "white blood cells": {"system": "white blood cells", "assay": "White blood cell number and differential, sheep (experiments 1 and 2)", "type": "in vivo, lambs (sheep)", "description": "A study was conducted to determine if KIC administration can alter white blood cell function, specifically T lymphocyte function, in growing sheep and cattle. Eighteen medium-framed crossbred male lambs were used in experiment 1. Lambs were randomly assigned to either a control diet (n=10) or a diet supplemented with 1% KIC (n=8). Animals were fed ad libitum in individual cages. At 100 and 108 days of treatment, 50-ml blood samples were collected for lymphocyte and neutrophil function tests.\nIn experiment 2, 19 intact crossbred male lambs were randomly assigned to either a saline treatment group (n=9) or a KIC treatment group (n=10). Control lambs were injected with 50 ml of a saline solution, and KIC treated lambs were injected with 50 ml of a 5% solution of KIC (sodium salt) daily (~2.5 g KIC/day). All injections were made intraperitoneally in the right posterior abdominal region after disinfection of the area. At day 60 and day 66 of treatment, blood was collected for lymphocyte and neutrophil function tests.\nSheep in experiments 1 and 2 were fed diets based on a mixture of 48% corn, 5% molasses, 20% alfalfa meal, 0.8% limestone, 0.6% salt-mineral-vitamin mix and ~25% of a protein supplement (either soybean meal, corn gluten meal, or corn gluten feed). The diets were isonitrogenous and analyzed to be ~20% crude protein and 89% dry matter. The KIC diet consisted of the basal diet to which was added 1% calcium-KIC, whereas the control diet was the basal diet plus 0.25% calcium carbonate.\nBlood was collected by jugular venapuncture into acid-citrate-dextrose anticoagulant. Lymphocytes and neutrophils were isolated, and lymphocyte blastogenesis and neutrophil function evaluated. KIC was obtained from SOBAC, Paris, France. Zein was purchased from Freeman Industries, Tuckahoe, NY. Each experiment was statistically analyzed by analysis of variance. In sheep experiments, individual animals were the experimental units, whereas pen means were analyzed in the cattle experiment.\n^2 Total white blood cell number (WBC) is the cells per mm^3."}},
  "data": [
    {"smiles": "CC(C)CC(=O)C(=O)O", "note": "[KIC, alpha-ketoisocaproate]", "values": [
      {"measurement": "CORTISOL: amount of cortisol in plasma", "setting": "cortisol in plasma; Trial 1, CGM diet, 1% KIC (0%: 1.04)", "value": ".65 ng/mL"},
      {"measurement": "CORTISOL: amount of cortisol in plasma", "setting": "cortisol in plasma; Trial 1, SBM diet, 1% KIC (0%: .99)", "value": ".83 ng/mL"},
      {"measurement": "CORTISOL: amount of cortisol in plasma", "setting": "cortisol in plasma; Trial 2, CGM diet, 1% KIC (0%: 3.77)", "value": 2.43, "unit": "ng/mL"},
      {"measurement": "CORTISOL: amount of cortisol in plasma", "setting": "cortisol in plasma; Trial 2, SBM diet, 1% KIC (0%: 2.70)", "value": 2.25, "unit": "ng/mL"},
      {"measurement": "BKG: background blastogenesis", "setting": "lymphocytes; Exp. 3, oral coated 0.02% KIC (control 1410)", "value": "1550 Counts/min per 2 × 10^5 cells"},
      {"measurement": "PWM: pokeweed mitogen-stimulated blastogenesis", "setting": "lymphocytes; Exp. 3, oral coated 0.02% KIC (control 23100)", "value": "27100 Counts/min per 2 × 10^5 cells"},
      {"measurement": "PHA: phytohemagglutinin-stimulated blastogenesis", "setting": "lymphocytes; Exp. 3, oral coated 0.02% KIC (control 40500)", "value": "43200 Counts/min per 2 × 10^5 cells"},
      {"measurement": "ConA: concanavalin A-stimulated blastogenesis", "setting": "lymphocytes; Exp. 3, oral coated 0.02% KIC (control 40900)", "value": "48800 Counts/min per 2 × 10^5 cells"},
      {"measurement": "BKG: background blastogenesis", "setting": "lymphocytes; Exp. 3, oral coated 0.07% KIC (control 1410)", "value": "2080 Counts/min per 2 × 10^5 cells"},
      {"measurement": "PWM: pokeweed mitogen-stimulated blastogenesis", "setting": "lymphocytes; Exp. 3, oral coated 0.07% KIC (control 23100)", "value": "38000 Counts/min per 2 × 10^5 cells"},
      {"measurement": "PHA: phytohemagglutinin-stimulated blastogenesis", "setting": "lymphocytes; Exp. 3, oral coated 0.07% KIC (control 40500)", "value": "74300 Counts/min per 2 × 10^5 cells"},
      {"measurement": "ConA: concanavalin A-stimulated blastogenesis", "setting": "lymphocytes; Exp. 3, oral coated 0.07% KIC (control 40900)", "value": "75400 Counts/min per 2 × 10^5 cells"},
      {"measurement": "BKG: background blastogenesis", "setting": "lymphocytes; Exp. 3, oral coated 0.20% KIC (control 1410)", "value": "1690 Counts/min per 2 × 10^5 cells"},
      {"measurement": "PWM: pokeweed mitogen-stimulated blastogenesis", "setting": "lymphocytes; Exp. 3, oral coated 0.20% KIC (control 23100)", "value": "30500 Counts/min per 2 × 10^5 cells"},
      {"measurement": "PHA: phytohemagglutinin-stimulated blastogenesis", "setting": "lymphocytes; Exp. 3, oral coated 0.20% KIC (control 40500)", "value": "56900 Counts/min per 2 × 10^5 cells"},
      {"measurement": "ConA: concanavalin A-stimulated blastogenesis", "setting": "lymphocytes; Exp. 3, oral coated 0.20% KIC (control 40900)", "value": "54400 Counts/min per 2 × 10^5 cells"},
      {"measurement": "% SEG", "setting": "white blood cells; Exp. 1, oral uncoated KIC 1% (control 38), p<.89", "value": "39% of Total WBC"},
      {"measurement": "% LYM", "setting": "white blood cells; Exp. 1, oral uncoated KIC 1% (control 61), p<.34", "value": "59% of Total WBC"},
      {"measurement": "% EOS", "setting": "white blood cells; Exp. 1, oral uncoated KIC 1% (control .7), p<.12", "value": "1.7% of Total WBC"},
      {"measurement": "% EOS", "setting": "white blood cells; Exp. 2, IP injected KIC (saline 3.4), p<.01", "value": "1.7% of Total WBC"},
      {"measurement": "% SEG", "setting": "white blood cells; Exp. 2, IP injected KIC (saline 41), p<.13", "value": "34% of Total WBC"},
      {"measurement": "% LYM", "setting": "white blood cells; Exp. 2, IP injected KIC (saline 48), p<.04", "value": "61% of Total WBC"}
    ]}
  ]
}
